Holding throughout (format): in vivo
For data set [1], the system named is transplanted Oryza sativa. Put plainly: Test Example 1: effect on crop, application before weed generation in submerged conditions. The settings on record: Application herbicide amount 320 g/ha; Seventeenth Table. In a few lines:
(§1)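 Pre-emergence application to water surface of submerged pots (4 cm depth, alluvial soil) on sowing day, with 2.5-leaf rice transplanted; emulsion diluted to g/ha rates. Grown in greenhouse at 25–30 °C; 0–5 herbicidal/crop-effect score after three weeks.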

Data set [2] has as its system Amaranthus retroflexus. Briefly: Test Example 4: herbicidal effect by application to foliage (diluvial soil, plastic box). The settings on record: application to foliage, application herbicide amount 320 g/ha. The essentials:
(§2)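 Plants were grown in sterilized diluvial soil in a greenhouse at 25-30° C for 14 days, then sprayed on stems and leaves with water-diluted emulsion formulation at set rates in g/ha. Weed control and crop injury were scored 3 weeks after treatment on a 0-5 herbicidal-ratio scale, from 0 (≤5%) to 5 (≥90%).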

Data set [3] has as its system Stellaria media. Described as above. The settings on record: application to foliage, application herbicide amount 320 g/ha. The essentials:
as §2

The test system of data set [4] is Scirpus juncoides. Briefly: Test Example 1: herbicidal activity, application before weed generation in submerged conditions. The settings on record: Application herbicide amount 320 g/ha; Seventeenth Table. The essentials: as §1
Data set [5] concerns Echinochloa oryzacola Vasing. The data set is described as above. The settings on record: Application herbicide amount 320 g/ha; Seventeenth Table. In a few lines: as §1
In data set [6] the test system is Monochoria vaginalis. The data set is described as above. The settings on record: Application herbicide amount 320 g/ha; Seventeenth Table. In a few lines: as §1
In data set [7] the test system is directly sowed Oryza sativa. Briefly: Test Example 3: effect on crop by application to foliage (Wagner pot, water depth 0.1-0.5 cm). The settings on record: Nineteenth Table. The essentials: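 Seeds were sown in alluvial soil in Wagner pots, grown for 14 days at 25–30 °C, then sprayed uniformly on foliage with the emulsified compound diluted to a given rate per hectare. Injury was graded three weeks after treatment from 0 (≤5%) to 5 (≥90%).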

[8] abbreviates: application herbicide amount 320 g/ha.
[9] abbreviates: application herbicide amount 400 g/ha.

Consider `Cc1nnc(NC(=O)c2ccc(C(F)(F)F)n3cnnc23)o1` [1-001], for which, in data set [1], the “a: transplanted Oryza sativa (effect on crop grade)” value (“a: transplanted Oryza sativa” for short) is 0 (Herbicidal ratio of 5% or less (almost no effect)). Moreover, the “N (Amaranthus retroflexus) herbicidal effect” value in data set [2] was 3 (Herbicidal ratio of 40% or more and less than 70%). In data set [3], the “P (Stellaria media) herbicidal effect” value was 4 (Herbicidal ratio of 70% or more and less than 90%). Moreover, in data set [4], the “B: Scirpus juncoides (herbicidal effect grade)” value (shortened to “B: Scirpus juncoides”) was 2 (Herbicidal ratio of 20% or more and less than 40%). Further, the “A: Echinochloa oryzicola Vasing. (herbicidal effect grade)” value in data set [5] is 3 (Herbicidal ratio of 40% or more and less than 70%). The “C: Monochoria vaginalis (herbicidal effect grade)” value (from here on “C: Monochoria vaginalis”) in data set [6] is 2 (Herbicidal ratio of 20% or more and less than 40%). Further, in data set [7] (setting [8]), the “b (directly sowed Oryza sativa) effect on crop grade” value is reported as 0 (Herbicidal ratio of 5% or less (almost no effect)).
`CCc1nnc(NC(=O)c2ccc(C(F)(F)F)n3c(C(C)C)nnc23)o1` [1-005]: in data set [1], the “a: transplanted Oryza sativa” value was 0 (Herbicidal ratio of 5% or less (almost no effect)). For the same compound, the “N (Amaranthus retroflexus) herbicidal effect” value in data set [2] is 3 (Herbicidal ratio of 40% or more and less than 70%). The “P (Stellaria media) herbicidal effect” value in data set [3] is 1 (Herbicidal ratio of 5% or more and less than 20%). Further, in data set [4], the “B: Scirpus juncoides” value is 4 (Herbicidal ratio of 70% or more and less than 90%). In addition, the “A: Echinochloa oryzicola Vasing. (herbicidal effect grade)” value in data set [5] was 5 (Herbicidal ratio of 90% or more (almost completely withered)). The “C: Monochoria vaginalis” value in data set [6] is 4 (Herbicidal ratio of 70% or more and less than 90%). Further, the “b (directly sowed Oryza sativa) effect on crop grade” value in data set [7] (setting [9]) is 0 (Herbicidal ratio of 5% or less (almost no effect)).
Consider `CSCc1nnc2c(C(=O)Nc3nnc(C)o3)ccc(C(F)(F)F)n12` [1-030], for which the “a: transplanted Oryza sativa” value in data set [1] was 0 (Herbicidal ratio of 5% or less (almost no effect)). Besides, the “N (Amaranthus retroflexus) herbicidal effect” value in data set [2] is 5 (Herbicidal ratio of 90% or more (almost completely withered)). Besides, the “P (Stellaria media) herbicidal effect” value in data set [3] was 5 (Herbicidal ratio of 90% or more (almost completely withered)). Also, in data set [4], the “B: Scirpus juncoides” value is 3 (Herbicidal ratio of 40% or more and less than 70%). The “A: Echinochloa oryzicola Vasing. (herbicidal effect grade)” value in data set [5] is recorded as 5 (Herbicidal ratio of 90% or more (almost completely withered)). Moreover, the “C: Monochoria vaginalis” value in data set [6] is 3 (Herbicidal ratio of 40% or more and less than 70%). Besides, the “b (directly sowed Oryza sativa) effect on crop grade” value in data set [7] (setting [8]) was 4 (Herbicidal ratio of 70% or more and less than 90%).
In the case of `CCOCc1nnc2c(C(=O)Nc3nnc(C)o3)ccc(C(F)(F)F)n12` [1-027], the “a: transplanted Oryza sativa” value in data set [1] was 1 (Herbicidal ratio of 5% or more and less than 20%). In data set [2], the “N (Amaranthus retroflexus) herbicidal effect” value is recorded as 5 (Herbicidal ratio of 90% or more (almost completely withered)). In data set [3], the “P (Stellaria media) herbicidal effect” value is reported as 5 (Herbicidal ratio of 90% or more (almost completely withered)). Moreover, in data set [4], the “B: Scirpus juncoides” value was 3 (Herbicidal ratio of 40% or more and less than 70%). Further, the “A: Echinochloa oryzicola Vasing. (herbicidal effect grade)” value in data set [5] is given as 5 (Herbicidal ratio of 90% or more (almost completely withered)). Besides, the “C: Monochoria vaginalis” value in data set [6] is 4 (Herbicidal ratio of 70% or more and less than 90%). The “b (directly sowed Oryza sativa) effect on crop grade” value in data set [7] (setting [8]) was 3 (Herbicidal ratio of 40% or more and less than 70%).
Take `Cc1nnc(NC(=O)c2ccc(C(F)(F)F)n3c(CS(C)(=O)=O)nnc23)o1` [1-037]: in data set [1], the “a: transplanted Oryza sativa” value is listed as 0 (Herbicidal ratio of 5% or less (almost no effect)). Further, the “N (Amaranthus retroflexus) herbicidal effect” value in data set [2] was 5 (Herbicidal ratio of 90% or more (almost completely withered)). Further, in data set [3], the “P (Stellaria media) herbicidal effect” value was 4 (Herbicidal ratio of 70% or more and less than 90%). Also, the “B: Scirpus juncoides” value in data set [4] is 2 (Herbicidal ratio of 20% or more and less than 40%). In addition, the “A: Echinochloa oryzicola Vasing. (herbicidal effect grade)” value in data set [5] is 0 (Herbicidal ratio of 5% or less (almost no effect)). For the same compound, the “C: Monochoria vaginalis” value in data set [6] was 3 (Herbicidal ratio of 40% or more and less than 70%). Further, the “b (directly sowed Oryza sativa) effect on crop grade” value in data set [7] (setting [8]) is 2 (Herbicidal ratio of 20% or more and less than 40%).
Turning to `COc1cccc(-c2nnc3c(C(=O)Nc4nnc(C)o4)ccc(C(F)(F)F)n23)c1` [1-046], in data set [1], the “a: transplanted Oryza sativa” value is 2 (Herbicidal ratio of 20% or more and less than 40%). Also, the “N (Amaranthus retroflexus) herbicidal effect” value in data set [2] was 5 (Herbicidal ratio of 90% or more (almost completely withered)). In data set [3], the “P (Stellaria media) herbicidal effect” value was 4 (Herbicidal ratio of 70% or more and less than 90%). The “B: Scirpus juncoides” value in data set [4] is 3 (Herbicidal ratio of 40% or more and less than 70%). For the same compound, the “A: Echinochloa oryzicola Vasing. (herbicidal effect grade)” value in data set [5] is reported as 5 (Herbicidal ratio of 90% or more (almost completely withered)). Besides, the “C: Monochoria vaginalis” value in data set [6] was 3 (Herbicidal ratio of 40% or more and less than 70%). The “b (directly sowed Oryza sativa) effect on crop grade” value in data set [7] (setting [8]) was 3 (Herbicidal ratio of 40% or more and less than 70%).
Turning to `Cc1ccc(-c2nnc3c(C(=O)Nc4nnc(C)o4)ccc(C(F)(F)F)n23)cc1` [1-043], the “a: transplanted Oryza sativa” value in data set [1] was 3 (Herbicidal ratio of 40% or more and less than 70%). The “N (Amaranthus retroflexus) herbicidal effect” value in data set [2] is given as 5 (Herbicidal ratio of 90% or more (almost completely withered)). Moreover, the “P (Stellaria media) herbicidal effect” value in data set [3] is 4 (Herbicidal ratio of 70% or more and less than 90%). In addition, the “B: Scirpus juncoides” value in data set [4] is 3 (Herbicidal ratio of 40% or more and less than 70%). For the same compound, in data set [5], the “A: Echinochloa oryzicola Vasing. (herbicidal effect grade)” value is recorded as 5 (Herbicidal ratio of 90% or more (almost completely withered)). Further, in data set [6], the “C: Monochoria vaginalis” value was 3 (Herbicidal ratio of 40% or more and less than 70%). For the same compound, in data set [7] (setting [8]), the “b (directly sowed Oryza sativa) effect on crop grade” value is 5 (Herbicidal ratio of 90% or more (almost completely withered)).
With `Cc1nnc(NC(=O)c2ccc(C(F)(F)F)n3c(C)nnc23)o1` [1-002], in data set [1], the “a: transplanted Oryza sativa” value is 0 (Herbicidal ratio of 5% or less (almost no effect)). The “N (Amaranthus retroflexus) herbicidal effect” value in data set [2] is 3 (Herbicidal ratio of 40% or more and less than 70%). In data set [3], the “P (Stellaria media) herbicidal effect” value is 5 (Herbicidal ratio of 90% or more (almost completely withered)). Besides, the “B: Scirpus juncoides” value in data set [4] is 1 (Herbicidal ratio of 5% or more and less than 20%). Also, in data set [5], the “A: Echinochloa oryzicola Vasing. (herbicidal effect grade)” value was 2 (Herbicidal ratio of 20% or more and less than 40%). The “C: Monochoria vaginalis” value in data set [6] is given as 0 (Herbicidal ratio of 5% or less (almost no effect)). In data set [7] (setting [9]), the “b (directly sowed Oryza sativa) effect on crop grade” value is 0 (Herbicidal ratio of 5% or less (almost no effect)).
With `Cc1nnc(NC(=O)c2ccc(C(F)(F)F)n3c(CC(=O)OC(C)C)nnc23)o1` [1-049], the “a: transplanted Oryza sativa” value in data set [1] is 0 (Herbicidal ratio of 5% or less (almost no effect)). In data set [2], the “N (Amaranthus retroflexus) herbicidal effect” value is 5 (Herbicidal ratio of 90% or more (almost completely withered)). For the same compound, the “P (Stellaria media) herbicidal effect” value in data set [3] was 4 (Herbicidal ratio of 70% or more and less than 90%). In addition, in data set [4], the “B: Scirpus juncoides” value was 2 (Herbicidal ratio of 20% or more and less than 40%). In addition, in data set [5], the “A: Echinochloa oryzicola Vasing. (herbicidal effect grade)” value was 5 (Herbicidal ratio of 90% or more (almost completely withered)). The “C: Monochoria vaginalis” value in data set [6] was 0 (Herbicidal ratio of 5% or less (almost no effect)). In addition, in data set [7] (setting [8]), the “b (directly sowed Oryza sativa) effect on crop grade” value is 1 (Herbicidal ratio of 5% or more and less than 20%).
Consider `Cc1nnc(NC(=O)c2ccc(C(F)(F)F)n3c(C4CC4)nnc23)o1` [1-010], for which the “a: transplanted Oryza sativa” value in data set [1] was 0 (Herbicidal ratio of 5% or less (almost no effect)). In data set [2], the “N (Amaranthus retroflexus) herbicidal effect” value is reported as 5 (Herbicidal ratio of 90% or more (almost completely withered)). Also, the “P (Stellaria media) herbicidal effect” value in data set [3] is recorded as 5 (Herbicidal ratio of 90% or more (almost completely withered)). Further, the “B: Scirpus juncoides” value in data set [4] was 3 (Herbicidal ratio of 40% or more and less than 70%). Besides, in data set [5], the “A: Echinochloa oryzicola Vasing. (herbicidal effect grade)” value was 5 (Herbicidal ratio of 90% or more (almost completely withered)). Besides, the “b (directly sowed Oryza sativa) effect on crop grade” value in data set [7] (setting [9]) is 0 (Herbicidal ratio of 5% or less (almost no effect)).
For the compound `Cc1nnc(NC(=O)c2ccc(C(F)(F)F)n3c(C(C)S(C)(=O)=O)nnc23)o1` (centres unmarked) [1-080], the “a: transplanted Oryza sativa” value in data set [1] is 4 (Herbicidal ratio of 70% or more and less than 90%). The “B: Scirpus juncoides” value in data set [4] was 4 (Herbicidal ratio of 70% or more and less than 90%). Further, the “A: Echinochloa oryzicola Vasing. (herbicidal effect grade)” value in data set [5] is reported as 5 (Herbicidal ratio of 90% or more (almost completely withered)). In addition, the “C: Monochoria vaginalis” value in data set [6] was 4 (Herbicidal ratio of 70% or more and less than 90%). Also, the “b (effect on crop grade)” value in data set [7] (application to foliage, application herbicide amount 320 g/ha) is reported as 5 (Herbicidal ratio of 90% or more (almost completely withered)).
